Assay results published in patent US20210052600A1, “THERAPEUTIC AGENTS FOR STRESS URINARY INCONTINENCE AND INCOTINENCE OF FECES” (Takeda Pharmaceutical Company Limited, priority 2017, published 2021).

Tests used:
urethral resistance = assay: Rat urethral resistance (LPP) measured by high speed infusion of saline into the bladder; type: in vivo; conditions: for LPP Post: 30 minutes after administration; for LPP Post / LPP Increase / LPP Pre: mean ± SEM; for LPP Increase: Post minus Pre; for LPP Pre: before administration
Source text: The rats were anesthetized with isoflurane. Their spinal cord was transected at the T8-T9 (the eighth thoracic cord—the ninth thoracic cord) level. After opening of the bladder dome, two polyethylene tubes (PE-100) were inserted into the bladder. The incised portion of the bladder was closed with sutures, and the other incisions were also closed. The rats were placed in Bollman cages. The catheter for intravesical pressure measurement was connected to a pressure transducer, while the catheter for saline filling was connected to a syringe filled with Evans Blue-dyed saline. Change in intravesical pressure was recorded using the pressure transducer via an electric signal amplifier and an analog-to-digital converter. After recovery of the animals from anesthesia, the intravesical pressure measurement was started, and saline was infused at a speed of 0.1 mL/sec into the bladder using an infusion pump. The infusion was stopped when the leakage of the saline from the urethral orifice was observed. Immediately thereafter, the bladder was emptied by releasing the pressure. In this operation, the peak of recorded intravesical pressure during the saline infusion was used as LPP in this Example. This measurement was repeated, and the average LPP from the last three measurements was used as the LPP value of the trial. The mean from 2 such trials was used as a Pre value. 0.5% MC was used as the vehicle. […] The difference in LPP from the Pre value (increased amount of LPP) was calculated. Regarding change in LPP before and after drug administration, the differences between the mean values of the drug-treated and vehicle-treated groups were analyzed by the one-tailed Williams' test.

urethra-closing response = assay: MT (threshold inducing urethra-closing response) under transcranial magnetic stimulation in healthy female volunteers; type: in vivo, human
Experimental: The test subjects were healthy female volunteers having a body weight of at least 45 kg (average: 50.91 kg, standard deviation: 3.346) and a BMI value of 18.5 kg/m^2 to 25.0 kg/m^2 (average: 19.57 kg/m^2, standard deviation: 0.929).
A washout period of at least 7 days was provided between the treatments.
A capsule containing 40 mg of duloxetine was orally administered as duloxetine together with water. A placebo capsule containing saccharose and spherical starch granules was orally administered as a placebo for duloxetine together with water.
Specifically, during the TMS, the output of a magnetic stimulator (Magstim Rapid Square, manufactured by Magstim Co., Ltd.) was increased by 5% each time using 110 mm double cone coil, and the minimum output at which urethra-closing response occurred abruptly was determined and used as MT (%). The urethra-closing response was detected by measuring contractile responses within the urethra. The contractile response within the urethra was measured using Duet Logic G2 (manufactured by Mediwatch Ltd.) and UniTip (manufactured by Unisensor AG). MT was measured again after administration of each drug, and the rate of change (%) from the baseline was calculated. The rate of change was determined by dividing MT after administration of each drug by MT before administration.

anus-closing functions = assay: Rat anus-closing functions (Anal LPP) measured by high speed infusion of saline into the rectum; type: in vivo; conditions: 5 minutes after administration, mean ± SEM
Source text: (§1) Thirty six female SD rats were used. After overnight fasting, rats were intraperitoneally administered with urethane for anesthesia, and isoflurane inhalation was further added during surgery. The abdomen was incised to expose the rectum, and a small incision of the rectum was made. A polyethylene catheter (SP61, Natsume) was inserted into the rectum through the rectum incision, and the tip of the catheter was positioned around 5 mm from the anal orifice. The other end of the catheter was connected with a pressure transducer and an infusion pump via three-way stopcocks, and the change in pressure in the rectum was measured using the pressure transducer, an electric signal amplifier, and an analog-to-digital converter. For administrating drugs, a polyethylene catheter (SP45, Natsume) was inserted into the femoral vein after exposing the vein by small incision.
After recovery period from surgery, while saline was infused at a speed of 0.1 mL/sec into the rectum using an infusion pump, change in the measured pressure—was observed. The infusion was stopped when the leakage of the saline from the anal orifice was observed. In the procedure, sudden decrease in the pressure was observed during the infusion with the leakage of saline from the anal orifice. The peak value of the pressure recorded in the rectum during the course of the procedures was defined as “an Anal LPP” in this Example. […] The Anal LPP was again measured in the same way 5 minutes after drug administration. The difference in Anal LPP from the Pre value (increased amount of Anal LPP) was calculated. Regarding change in Anal LPP before and after drug administration, the differences between the mean values of the drug-treated and vehicle-treated groups were analyzed by the one-tailed Williams' test or Student's t-test.

[1] = test system: anus-closing function increasing effect of Compound A′; assay: Influence of SB 242084 on Compound A′-induced rat anus-closing function increasing effect (Anal LPP); type: in vivo; conditions: vehicle i.v. then Compound A′ 1 mg/kg i.v.; 5 minutes after Compound A′; n=9
Experimental: as §1, with “Eighteen” for “Thirty six”, “was” for “was further”
After recovery period from surgery, while saline was infused at a speed of 0.1 mL/sec into the rectum using an infusion pump, change in the measured pressure—was observed. […] The peak value of the pressure recorded in the rectum during the course of the procedures was defined as “an Anal LPP” in this Example. […] The Anal LPP was again measured in the same way 5 minutes after the administration with Compound A′. The difference in Anal LPP from the Pre value (increased amount of Anal LPP) was calculated. […]

[2] = Plasma concentration of Compound A in healthy female volunteers after a single oral dose of Compound A′; conditions: no unit in table (ng/mL)
Experimental: In each period, the test subjects received any of Treatments A to D once according to Table 10, and change in the plasma concentration of the administered compound was measured over 24 hours after each Treatment.
Specifically, 100 mL of the injectable water containing 20 mg or 90 mg of Compound A′ based on its free form was supplemented with a sweetener, and this solution was orally administered as Compound A′. As a placebo for Compound A′, 100 mL of the injectable water was supplemented with a sweetener, and this solution was orally administered.

[3] = 20 mg single oral dose, Predose
[4] = 90 mg single oral dose, Predose

CC(C)N(C)c1cnc2c(n1)OCCNC2.Cl [Compound A′, N-methyl-N-(1-methylethyl)-6,7,8,9-tetrahydropyrazino[2,3-f][1,4]oxazeine-3-amine]
LPP Post (urethral resistance; 1.25 mg/kg p.o.): 63.2 ± 4.7 cmH2O
LPP Increase (urethral resistance; 1.25 mg/kg p.o.): 5.5 ± 3.0 cmH2O
LPP Pre (urethral resistance; 1.25 mg/kg p.o.): 57.7 ± 3.6 cmH2O
LPP Post (urethral resistance; 2.5 mg/kg p.o.): 70.2 ± 3.8 cmH2O
LPP Increase (urethral resistance; 2.5 mg/kg p.o.): 10.9 ± 2.2 cmH2O
LPP Pre (urethral resistance; 2.5 mg/kg p.o.): 59.2 ± 2.6 cmH2O
LPP Post (urethral resistance; 5 mg/kg p.o.): 75.9 ± 3.3 cmH2O
LPP Increase (urethral resistance; 5 mg/kg p.o.): 15.3 ± 3.7 cmH2O
LPP Pre (urethral resistance; 5 mg/kg p.o.): 60.6 ± 3.6 cmH2O
LPP Post (urethral resistance; 10 mg/kg p.o.): 78.4 ± 5.6 cmH2O
LPP Increase (urethral resistance; 10 mg/kg p.o.): 21.7 ± 4.4 cmH2O
LPP Pre (urethral resistance; 10 mg/kg p.o.): 56.7 ± 2.4 cmH2O
LPP Post (urethral resistance; 20 mg/kg p.o.): 77.7 ± 3.5 cmH2O
LPP Increase (urethral resistance; 20 mg/kg p.o.): 21.5 ± 3.4 cmH2O
LPP Pre (urethral resistance; 20 mg/kg p.o.): 56.3 ± 5.1 cmH2O
LPP10, the dose that increases LPP by 10 cm H2O (urethral resistance; oral administration, high speed saline infusion method): 1.6 mg/kg
maximum change from baseline in MT in response to TMS (urethra-closing response; 20 mg group, at 0.5 hours post dose): −8.1%
MT of the urethra-closing response in response to TMS, Mean (urethra-closing response; 20 mg single oral dose, 0.5 hr): 58.1%
Rate of change from baseline of MT of the urethra-closing response in response to TMS, Mean (urethra-closing response; 20 mg single oral dose, 0.5 hr): −8.1%
MT of the urethra-closing response in response to TMS, Mean (urethra-closing response; 20 mg single oral dose, 2 hr): 59.0%
Rate of change from baseline of MT of the urethra-closing response in response to TMS, Mean (urethra-closing response; 20 mg single oral dose, 2 hr): −7.3%
MT of the urethra-closing response in response to TMS, Mean (urethra-closing response; 20 mg single oral dose, 6 hr): 64.2%
Rate of change from baseline of MT of the urethra-closing response in response to TMS, Mean (urethra-closing response; 20 mg single oral dose, 6 hr): −2.1%
MT of the urethra-closing response in response to TMS, Mean (urethra-closing response; [3]): 66.3%
maximum change from baseline in MT in response to TMS (urethra-closing response; 90 mg group, at 3 hours post dose): −17.2%
MT of the urethra-closing response in response to TMS, Mean (urethra-closing response; 90 mg single oral dose, 0.5 hr): 55.9%
Rate of change from baseline of MT of the urethra-closing response in response to TMS, Mean (urethra-closing response; 90 mg single oral dose, 0.5 hr): −14.1%
MT of the urethra-closing response in response to TMS, Mean (urethra-closing response; 90 mg single oral dose, 2 hr): 52.8%
Rate of change from baseline of MT of the urethra-closing response in response to TMS, Mean (urethra-closing response; 90 mg single oral dose, 2 hr): −17.2%
MT of the urethra-closing response in response to TMS, Mean (urethra-closing response; 90 mg single oral dose, 6 hr): 56.3%
Rate of change from baseline of MT of the urethra-closing response in response to TMS, Mean (urethra-closing response; 90 mg single oral dose, 6 hr): −13.7%
MT of the urethra-closing response in response to TMS, Mean (urethra-closing response; [4]): 70.0%
Anal LPP Increase (anus-closing functions; 0.3 mg/kg i.v.): 6.2 ± 3.1 cmH2O
Anal LPP Increase (anus-closing functions; 1 mg/kg i.v.): 30.2 ± 9.6 cmH2O
Anal LPP Increase [1]: 9.2±3.0 cmH2O
plasma concentration of compound A, Mean ([2]; 20 mg single oral dose, 0.5 hr): 29.21
plasma concentration of compound A, Median ([2]; 20 mg single oral dose, 0.5 hr): 28.40
plasma concentration of compound A, Mean ([2]; 20 mg single oral dose, 1 hr): 25.19
plasma concentration of compound A, Median ([2]; 20 mg single oral dose, 1 hr): 24.10
plasma concentration of compound A, Mean ([2]; 20 mg single oral dose, 2 hr): 20.46
plasma concentration of compound A, Median ([2]; 20 mg single oral dose, 2 hr): 19.20
plasma concentration of compound A, Mean ([2]; 20 mg single oral dose, 3 hr): 14.38
plasma concentration of compound A, Median ([2]; 20 mg single oral dose, 3 hr): 13.10
plasma concentration of compound A, Mean ([2]; 20 mg single oral dose, 6 hr): 3.476
plasma concentration of compound A, Median ([2]; 20 mg single oral dose, 6 hr): 3.760
plasma concentration of compound A, Mean ([2]; 20 mg single oral dose, 8 hr): 1.416
plasma concentration of compound A, Median ([2]; 20 mg single oral dose, 8 hr): 1.590
plasma concentration of compound A, Mean ([2]; 20 mg single oral dose, 12 hr): 0.1327
plasma concentration of compound A, Median ([2]; 20 mg single oral dose, 12 hr): 0.000
plasma concentration of compound A, Mean [2, 3]: 0.000
plasma concentration of compound A, Median [2, 3]: 0.000
plasma concentration of compound A, Mean ([2]; 90 mg single oral dose, 0.5 hr): 127.3
plasma concentration of compound A, Median ([2]; 90 mg single oral dose, 0.5 hr): 114.0
plasma concentration of compound A, Mean ([2]; 90 mg single oral dose, 1 hr): 126.0
plasma concentration of compound A, Median ([2]; 90 mg single oral dose, 1 hr): 113.0
plasma concentration of compound A, Mean ([2]; 90 mg single oral dose, 2 hr): 152.8
plasma concentration of compound A, Median ([2]; 90 mg single oral dose, 2 hr): 145.0
plasma concentration of compound A, Mean ([2]; 90 mg single oral dose, 3 hr): 122.4
plasma concentration of compound A, Median ([2]; 90 mg single oral dose, 3 hr): 127.0
plasma concentration of compound A, Mean ([2]; 90 mg single oral dose, 6 hr): 52.81
plasma concentration of compound A, Median ([2]; 90 mg single oral dose, 6 hr): 47.30
plasma concentration of compound A, Mean ([2]; 90 mg single oral dose, 8 hr): 24.69
plasma concentration of compound A, Median ([2]; 90 mg single oral dose, 8 hr): 20.30
plasma concentration of compound A, Mean ([2]; 90 mg single oral dose, 12 hr): 5.612
plasma concentration of compound A, Median ([2]; 90 mg single oral dose, 12 hr): 4.450
plasma concentration of compound A, Mean [2, 4]: 0.000
plasma concentration of compound A, Median [2, 4]: 0.000
